{
  "source": "paper PMC5901744",
  "about": "(Science (New York, N.Y.), 2017)",
  "key": {"[1]": {"test_system": "SaHEPD (hydroxyethylphosphonate dioxygenase from Streptomyces albus; class II HEPD)", "conditions": "read-out: Km,HEP; Fe(II), O2; product MPn instead of HMP"}, "[2]": {"test_system": "SaHEPD (hydroxyethylphosphonate dioxygenase from Streptomyces albus; class II HEPD)", "assay": "steady-state kinetics", "format": "biochemical", "conditions": "Fe(II), O2"}},
  "data": [
    {"compound": "O=P(O)(O)CCO", "note": "[2-HEP, 2-hydroxyethylphosphonate]", "values": [
      {"measurement": "Km", "setting": "[1]", "value": "15 ± 2", "unit": "µM"},
      {"measurement": "Km,HEP", "setting": "[2]", "value": "very similar to those of purified wild-type SaHEPD (Fig. S6 and S7, Table S2)"}
    ]}
  ]
}
